Results: US20240366543A1, “METHODS OF TREATING METHYLMALONIC ACIDEMIA AND PROPIONIC ACIDEMIA” (HemoShear Therapeutics, Inc., priority 2021, published 2024)
≈ marks a conversion by molar mass, not a printed value. Where “and” joins values, the source holds several entries; their conditions need not be identical. Equal entries are not always repeated. Where two headings read alike, the source gives them in different places.

Assays:
[1] = test system: primary hepatocytes (pHeps) from PA donors; experiment: HemoShear REVEAL-Tx Technology, PA pHeps; format: cell-based, human
Excerpt: (§1) For this experiment, we deployed the HemoShear REVEAL-Tx™ technology, which is based on the cone-and-plate configuration or viscometer combined with a porous polycarbonate membrane that mimics a filtering layer of sinusoidal endothelial cells (see: Dash A, Deering TG, Marukian S, et al. Physiological Hemodynamics and Transport Restore Insulin and Glucagon Responses in a Normal Glucose Milieu in Hepatocytes In Vitro. 73rd Scientific Sessions of the American Diabetes Association, 2013 (Chicago), and U.S. Pat. Nos. 7,811,782 and 9,500,642, and 9,617,521, each of which is incorporated by reference herein in its entirety).
Hepatocytes from propionic academia patients are plated in a collagen gel sandwich on one side of the membrane replicating the polarized orientation found in vivo within the hepatic sinusoids. On the other side, medium is continuously perfused and surface shear rates are applied across a range of physiological values derived from sinusoidal flow rates in vivo while also controlling transport in the system with in- and out-flow tubing to each compartment. Effectively, this creates a flow-based culture system where hepatocytes are shielded from direct effects of flow, as they would be in vivo, but perfusion, nutrient gradients, and interstitial fluid movement are maintained.
Biomarker levels are normalized to cell counts and cell volume to account for differences in the number of cells plated for each donor. […] This is most likely due to the presence of ^12C-succinyl-CoA in the sample, which has the same mass. In experiments described below, M-CoA is labeled with ^13C to determine a more accurate percent reduction. Compound 5 reduced the C3 concentration and the C3/C2 ratio with an EC50 similar to that for the reduction in P-CoA (FIGS. 3C, 3D).

[2] = test system: primary hepatocytes (pHeps) from MMA donors; experiment: HemoShear REVEAL-Tx Technology, MMA pHeps; format: cell-based, human
Normal pHeps = experiment: HemoShear Technology, normal pHeps; format: cell-based, human; details: exposed 6 days
Excerpt: as §1, with “entirety). […]” for “entirety).”
In PA and MMA pHeps, where P-CoA and M-CoA levels are very high, there is a dramatic reduction in P-CoA and M-CoA pools with Compound 5 treatment (Table 2 and Table 3). […] The effect of Compound 5 on levels of acetyl-CoA were measured in PA and MMA pHeps in acute static experiments and in PA, MMA and normal pHeps following chronic exposures in the HemoShear Technology (FIG. 5B; FIG. 6B). […]
To further evaluate the hypothesis that Compound 5 drives a redistribution of the acyl-CoA pools resulting in a reduction in P-CoA and M-CoA, the levels of CoASH were measured in the PA and MMA disease models. […]

[3] = Phase 2 study preliminary plasma pharmacokinetics in PA/MMA subjects; format: in vivo, human; details: for C24 / concentration at 24 h: 24 hours post-dose; for C24: C24projected: ratio observed to projected; for AUC(0-t): read-out: AUC0-24 h; for concentration at 24 h: read-out: C24
Method: Part A is the dose escalation phase to assess the initial safety and to confirm the pharmacologic activity of Compound 5 in subjects with PA and MMA. Screening for eligibility took place within 28 days of enrollment. All subjects were initially evaluated during a 4-week run-in period followed by within-subject dose escalation of 3 doses (1, 3, and 10 mg/kg QD of sodium 2,2-dimethylbutanoate); dose escalation interval of 4 weeks) to check for improvement in disease-related biomarkers.
Plasma will be analyzed by liquid chromatography with tandem mass spectrometry (LC-MS/MS) with a lower limit of quantitation of 0.100 μg/mL. Samples collected for analyses of Compound 5 (plasma/serum/whole blood)] concentration may also be used to evaluate safety or efficacy aspects related to concerns arising during or after the study.
Preliminary pharmacokinetics (PK) data from the first two subjects of Study described in Examples 7-8 was evaluated at 1 mg/kg, 3 mg/kg and 10 mg/kg of Compound 5 dosed once daily (QD).

[4] = PA pHeps, HemoShear Technology, average ± SD
[5] = PA pHeps, HemoShear Technology, exposed 6 days
[6] = 1 mg/kg QD, single dose, individual subjects 010-1001, 010-1002, preliminary
[7] = 1 mg/kg QD, steady-state, individual subjects
[8] = 3 mg/kg QD, steady-state, individual subjects
[9] = 10 mg/kg QD, steady-state, individual subjects
[10] = human, plasma, oral, 1 mg/kg, 1 mg/kg QD, steady-state, individual subjects
[11] = human, plasma, oral, 10 mg/kg, 10 mg/kg QD, steady-state, individual subjects

Structure (SMILES): CCC(C)(C)C(=O)O [Compound 5, 2,2-dimethylbutyric acid]
- EC50 value for CoASH relative to EC50 value for reduction in disease biomarkers ([1]; HemoShear Technology, PA and MMA pHeps, 6 days): 10 fold
- EC90 ([1]; Homo sapiens, Hepatocyte, exposure threshold used for comparison with clinical PK, read-out: estimated in vitro EC90): 2.32 µg/mL (≈ 20 µM)
- average reduction in the C3/C2 ratio (log 2 fold change) ([1]; PA pHeps, HemoShear Technology, 30 μM): −2.1±1.2 log 2 fold change
- % change at 30 μM, 2-Methylcitric acid (2MC) [1, 4]: −78.6±12.9%
- % change at 30 μM, 12C-Acetyl-Carnitine (C2) [1, 4]: 54 ± 80.6%
- % change at 30 μM, 12C-Propionyl-Carnitine (C3) [1, 4]: −68.9±14.6% and −69.4 ± 16.2%
- % change at 30 μM, 12C-Propionyl-CoA (P-CoA) [1, 4]: −78.8±10.9%
- Percent change at 30 μM, 12C-Acetyl-CoA [1, 5]: 54 ± 80.6%
- Percent change at 30 μM, CoASH [1, 5]: −31.3 ± 24.2%
- average reduction in the C3/C2 ratio (log 2 fold change) ([2]; 30 μM): −2.2±0.2 log 2 fold change
- % change at 30 μM, 2-Methylcitric acid (2MC) ([2]; average ± SD): −66.7±14.9%
- % change at 30 μM, 12C-Acetyl-Carnitine (C2) ([2]; average ± SD): 44.6 ± 26.8%
- % change at 30 μM, 12C-Methylmalonyl-CoA (M-CoA) ([2]; average ± SD): −55±6.6%
- % change at 30 μM, 12C-Propionyl-Carnitine (C3) ([2]; average ± SD): −65.9±10.7%
- % change at 30 μM, 12C-Propionyl-CoA (P-CoA) ([2]; average ± SD): −74.2±11.6%
- Percent change at 30 μM, 12C-Acetyl-CoA ([2]; exposed 6 days): 13.5 ± 24.9%
- Percent change at 30 μM, CoASH ([2]; exposed 6 days): −22.3 ± 22.3%
- Percent change at 30 μM, 12C-Acetyl-CoA (Normal pHeps): 20 ± 2.9%
- Percent change at 30 μM, CoASH (Normal pHeps): −35.2 ± 3%
- AUC0-24 h [3, 6]: 22800 ng·h/mL
- Cmax [3, 6]: 1740 ng/mL
- C24 [3, 7]: 0.765 µg/mL
- AUC0-24 h [3, 7]: 36500 ng·h/mL
- Cmax ([3]; 1 mg/kg QD, steady-state, individual subjects 010-1001, 010-1002): 2930 ng/mL
- C24: C24projected [3, 7]: 1.27 and 0.829
- C24 [3, 8]: 3.34 µg/mL and 1.01 µg/mL
- AUC0-24 h [3, 8]: 115000 ng·h/mL
- Cmax ([3]; 3 mg/kg QD, steady-state, individual subjects 010-1001, 010-1002): 11400 ng/mL
- C24: C24projected [3, 8]: 1.21 and 0.365
- C24 [3, 9]: 13.1 µg/mL
- AUC0-24 h [3, 9]: 678000 ng·h/mL
- Cmax ([3]; 10 mg/kg QD, steady-state, individual subjects 010-1001, 010-1002): 50600 ng/mL
- C24: C24projected [3, 9]: 0.985 and 1.42
- AUC(0-t) ([3]; human, plasma, oral, 1 mg/kg, 1 mg/kg QD, single dose, individual subjects 010-1001, 010-1002, preliminary): 30800 ng·h/mL
- Cmax ([3]; human, plasma, oral, 1 mg/kg, 1 mg/kg QD, single dose, individual subjects 010-1001, 010-1002, preliminary, read-out: Cmax): 2620 ng/mL
- concentration at 24 h [3, 10]: 1170 ng/mL
- Cmax ([3]; human, plasma, oral, 1 mg/kg, 1 mg/kg QD, steady-state, individual subjects 010-1001, 010-1002, read-out: Cmax): 4410 ng/mL
- AUC(0-t) [3, 10]: 56500 ng·h/mL
- Cmax ([3]; human, plasma, oral, 3 mg/kg, 3 mg/kg QD, steady-state, individual subjects 010-1001, 010-1002, read-out: Cmax): 15900 ng/mL
- AUC(0-t) ([3]; human, plasma, oral, 3 mg/kg, 3 mg/kg QD, steady-state, individual subjects): 189000 ng·h/mL
- concentration at 24 h [3, 11]: 9090 ng/mL
- Cmax ([3]; human, plasma, oral, 10 mg/kg, 10 mg/kg QD, steady-state, individual subjects 010-1001, 010-1002, read-out: Cmax): 50700 ng/mL
- AUC(0-t) [3, 11]: 557000 ng·h/mL
